Experimental data reported in the supplement of paper PMC10307832.

Tests used:
Assay in all cases: relative viability (nuclei count vs DMSO), 5 days (fraction); higher = more cells survive
BI-2536 + Olaparib = compound: CC[C@@H]1C(=O)N(C)c2cnc(Nc3ccc(C(=O)NC4CCN(C)CC4)cc3OC)nc2N1C1CCCC1 [BI-2536] + O=C(c1cc(Cc2n[nH]c(=O)c3ccccc23)ccc1F)N1CCN(C(=O)C2CC2)CC1 [Olaparib] (partner 8 µM)
Outline: (§1)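 Nuclei were stained with Hoechst during a one-step fixation (final 0.05% Triton X-100, 1% formaldehyde, 1 ug/ml Hoechst) carried out 5 days after dosing, then counted on 4× images. The cells, lung cancer lines in 1536-well plates, had been dosed by pin tool the day after seeding with one drug alone or a fixed anchor-drug dose plus five library-drug doses (not always all listed) in √10 steps. Relative viability is the nuclei count in treated wells divided by that in vehicle wells, and each value is the median of duplicate plates.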

[1] = compound: CC1CC(=O)N(C2=CN=C(N=C2N1C3CCCC3)NC4=C(C=C(C=C4)C(=O)NC5CCN(CC5)C)OC)C [NPK76-II-72-1] + C[C@]1(O)C[C@@H](c2nc(-c3ccc4ccc(-c5ccccc5)nc4c3)c3c(N)nccn32)C1 [Linsitinib] (partner 1 µM)
Outline: as §1

BI-2536 + Crizotinib = compound: CC[C@@H]1C(=O)N(C)c2cnc(Nc3ccc(C(=O)NC4CCN(C)CC4)cc3OC)nc2N1C1CCCC1 [BI-2536] + C[C@@H](Oc1cc(-c2cnn(C3CCNCC3)c2)cnc1N)c1c(Cl)ccc(F)c1Cl [Crizotinib] (partner 1 µM)
Outline: as §1

BI-2536 + Pemetrexed = compound: CC[C@@H]1C(=O)N(C)c2cnc(Nc3ccc(C(=O)NC4CCN(C)CC4)cc3OC)nc2N1C1CCCC1 [BI-2536] + Nc1nc2[nH]cc(CCc3ccc(C(=O)N[C@@H](CCC(=O)O)C(=O)O)cc3)c2c(=O)[nH]1 [Pemetrexed] (partner 0.2 µM)
Outline: as §1

Row | Cell Line | relative viability (BI-2536 + Olaparib; first compound 0.01 µM) | relative viability (BI-2536 + Olaparib; first compound 0.03162 µM) | relative viability (BI-2536 + Olaparib; first compound 0.1 µM) | relative viability (BI-2536 + Olaparib; first compound 0.3162 µM) | relative viability (BI-2536 + Olaparib; first compound 1 µM) | relative viability ([1]; first compound 0.01 µM) | relative viability ([1]; first compound 0.03162 µM) | relative viability ([1]; first compound 0.1 µM) | relative viability ([1]; first compound 0.3162 µM) | relative viability ([1]; first compound 1 µM) | relative viability (BI-2536 + Crizotinib; first compound 0.01 µM) | relative viability (BI-2536 + Crizotinib; first compound 0.03162 µM) | relative viability (BI-2536 + Crizotinib; first compound 0.1 µM) | relative viability (BI-2536 + Crizotinib; first compound 0.3162 µM) | relative viability (BI-2536 + Crizotinib; first compound 1 µM) | relative viability (BI-2536 + Pemetrexed; first compound 0.01 µM) | relative viability (BI-2536 + Pemetrexed; first compound 0.03162 µM) | relative viability (BI-2536 + Pemetrexed; first compound 0.1 µM) | relative viability (BI-2536 + Pemetrexed; first compound 0.3162 µM) | relative viability (BI-2536 + Pemetrexed; first compound 1 µM)
1 | EBC-1 | 0.616 | 0.612 | 0.377 | 0.139 | 0.133 | 0.853 | 0.858 | 0.886 | 0.922 | 1.13 | 0.194 | 0.14 | 0.175 | 0.141 | 0.145 |  |  |  |  | 
2 | SW 1573 | 0.446 | 0.266 | 0.12 | 0.1 | 0.0718 | 0.808 | 0.794 | 0.721 | 0.728 | 0.681 | 0.774 | 0.905 | 0.708 | 0.17 | 0.126 | 0.753 | 0.516 | 0.149 | 0.124 | 0.0813
3 | A-427 | 0.727 | 0.593 | 0.385 | 0.191 | 0.176 | 1.1 | 1.09 | 1.15 | 1.14 | 1.13 | 0.927 | 0.678 | 0.535 | 0.119 | 0.0896 | 1.01 | 1.07 | 0.504 | 0.198 | 0.196
4 | NCI-H2347 | 0.537 | 0.501 | 0.531 | 0.471 | 0.405 | 0.925 | 1.03 | 1 | 0.896 | 0.983 | 0.675 | 0.692 | 0.675 | 0.345 | 0.445 | 0.437 | 0.437 | 0.38 | 0.365 | 0.344
5 | NCI-H1355 | 0.728 | 0.598 | 0.536 | 0.169 | 0.17 | 0.844 | 0.837 | 0.809 | 0.792 | 0.848 | 1.06 | 1.1 | 0.796 | 0.198 | 0.184 | 1.04 | 1 | 0.899 | 0.211 | 0.174
6 | NCI-H358 | 0.559 | 0.247 | 0.0974 | 0.0882 | 0.0802 | 0.742 | 0.773 | 0.854 | 0.412 | 0.784 | 0.446 | 0.259 | 0.22 | 0.173 | 0.139 | 0.191 | 0.178 | 0.194 | 0.0986 | 0.102
7 | PC-3 [JPC-3] | 1.22 | 0.896 | 0.582 | 0.327 | 0.369 | 0.927 | 0.91 | 0.936 | 0.935 | 0.963 | 1.04 | 0.846 | 0.871 | 0.33 | 0.244 | 1.23 | 1.04 | 0.319 | 0.299 | 0.24
8 | NCI-H2228 | 0.596 | 0.553 | 0.141 | 0.118 | 0.123 | 0.428 | 0.572 | 0.763 | 0.66 | 0.736 | 0.547 | 0.466 | 0.236 | 0.207 | 0.172 | 0.382 | 0.385 | 0.131 | 0.194 | 0.14
